Test results reported in patent publication US20030158094A1, “Combination product of an aryl-substituted propanolamine derivative with at least one other active ingredient and the use of the product” (priority 2001, published 2003).

Tests used:
Assay type in all cases: in vivo
[1] = test system: Male Syrian hamsters (Mesocricetus auratus); test: Plasma lipids in cholesterol-fed hamsters, combination of compound C1 with Caromax; conditions: 30 mg/kg/d C1, feed +0.1% CH
Protocol: (§1) Hamsters were used for the biological testing of the combination product of the invention. Male Syrian hamsters (Mesocricetus auratus) from 8 to 10 weeks of age were used for the experiment. The animals received a standard feed (Teklad 8604M) supplemented with 0.1% cholesterol. An additional normal control group received only standard feed. The test substances were administered orally by gavage once a day on 12 consecutive days, and the control group was treated with the vehicle. Feces were collected on days 5 and 6 of the experiment for bile acid analysis. Retroorbital blood was taken from the animals on day 10 of the experiment, and the lipid levels in the plasma were determined. Radioactive tracers were administered orally to the animals on day 11 of the experiment to determine the cholesterol absorption in analogy to the method described by Zilversmith et al. On day 13 of the experiment, the animals were sacrificed, and the animals' livers were removed for cholesterol analysis and preparation of microsomes. The 7α-hydroxylase activity was determined in the liver microsomes ex vivo by a modified method of Hylemon et al. [table] Male Syrian hamsters (Mesocricetus auratus) supplied by Harlan 80-100 g at the start of adaptation Safety parameters (CH; TG; ALAT/ASAT; AP; HDL/LDL) Preliminary value and 2 days before end of the experiment (isoflurane anesthesia) by retroorbital blood sampling

[2] = test system: Male Syrian hamsters (Mesocricetus auratus); test: Liver cholesterol (HPLC) in cholesterol-fed hamsters, C1 with Caromax; conditions: 30 mg/kg/d C1, feed +0.1% CH
Protocol: as §1, with “Liver cholesterol (HPLC)=1×500 mg in EtOH/KOH (sample is also used for CH synthesis)” for “Male Syrian hamsters (Mesocricetus auratus) supplied by Harlan 80-100 g at the start of adaptation Safety parameters (CH; TG; ALAT/ASAT; AP; HDL/LDL) Preliminary value and 2 days before end of the experiment (isoflurane anesthesia) by retroorbital blood sampling”

[3] = test system: Male Syrian hamsters (Mesocricetus auratus); test: Liver cholesterol synthesis (14C-octanoate i.v.) in cholesterol-fed hamsters, C1 with Caromax; conditions: 30 mg/kg/d C1, feed +0.1% CH
Protocol: Hamsters were used for the biological testing of the combination product of the invention. Male Syrian hamsters (Mesocricetus auratus) from 8 to 10 weeks of age were used for the experiment. The animals received a standard feed (Teklad 8604M) supplemented with 0.1% cholesterol. An additional normal control group received only standard feed. The test substances were administered orally by gavage once a day on 12 consecutive days, and the control group was treated with the vehicle. [table] Cholesterol Synthesis i.v. administration of ^14C-octanoate 10 μCi/100 g of animal 1 hour before the end of the experiment (isoflurane anesthesia) Removal of 2×500 mg of liver in EtOH/KOH

[4] = test system: Male Syrian hamsters (Mesocricetus auratus); test: Plasma lipids in cholesterol-fed hamsters, ezetimibe (K00 04513) plus C1; conditions: feed +0.1% CH; for HDL % / Plasma parameter Cholesterol % / Plasma parameter LDL % / Plasma parameter Triglycerides %: cholesterol ctr. = 100
Protocol: as §1, with “[table]” for “[table] Male Syrian hamsters (Mesocricetus auratus) supplied by Harlan 80-100 g at the start of adaptation Safety parameters (CH; TG; ALAT/ASAT; AP; HDL/LDL) Preliminary value and 2 days before end of the experiment (isoflurane anesthesia) by retroorbital blood sampling”

[5] = test system: Male Syrian hamsters (Mesocricetus auratus); test: Liver cholesterol (HPLC) in cholesterol-fed hamsters, ezetimibe (K00 04513) plus C1; conditions: feed +0.1% CH; for Liver Cholesterol %: cholesterol ctr. = 100
Protocol: as §1, with “[table]” for “[table] Male Syrian hamsters (Mesocricetus auratus) supplied by Harlan 80-100 g at the start of adaptation Safety parameters (CH; TG; ALAT/ASAT; AP; HDL/LDL) Preliminary value and 2 days before end of the experiment (isoflurane anesthesia) by retroorbital blood sampling”

[6] = test system: Male Syrian hamsters (Mesocricetus auratus); test: Cholesterol absorption (3H-sitosterol/14C-cholesterol, feces) in hamsters, ezetimibe (K00 04513) plus C1; conditions: feed +0.1% CH; for CH absorption % of ctr.: normal ctr. = 100.0
Protocol: as §1, with “[table]” for “[table] Male Syrian hamsters (Mesocricetus auratus) supplied by Harlan 80-100 g at the start of adaptation Safety parameters (CH; TG; ALAT/ASAT; AP; HDL/LDL) Preliminary value and 2 days before end of the experiment (isoflurane anesthesia) by retroorbital blood sampling”

[7] = group 3, 0.1 mg/kg/d K 00 04513
[8] = group 4, 0.3 mg/kg/d K 00 04513

## O=C(CCCCCCCCCCNC(=O)[C@H](O)[C@@H](O)[C@H](O)[C@H](O)CO)Nc1ccccc1[C@@H](Nc1ccccn1)[C@H](c1ccccn1)[C@H](O)c1ccccc1 [C1]
[1]
  Cholesterol: 3.58 mmol/L
  HDL-cholesterol: 2.42 mmol/L
  LDL-cholesterol: 0.88 mmol/L
  Triglycerides: 1.49 mmol/L
[1]; hyperlip. ctr. = 100
  Cholesterol %: 89%
  HDL-cholesterol %: 96%
  LDL-cholesterol %: 75%
  Triglycerides %: 102%
[2]
  Liver Cholesterol: 14.72 mg/g
[2]; hyperlip. ctr. = 100
  Liver Cholesterol %: 54%
[3]
  Liver Sterol biosynthesis: 73 dpm/g/h
[3]; normal ctr. I = 100
  Liver Sterol biosynthesis %: 18%
[4]; group 6, 3 mg/kg/d C1
  HDL: 2.20 mmol/L
  Plasma parameter Cholesterol: 3.92 mmol/L
  Plasma parameter LDL: 0.98 mmol/L
  Plasma parameter Triglycerides: 1.84 mmol/L
  HDL %: 102%
  Plasma parameter Cholesterol %: 96%
  Plasma parameter LDL %: 87%
  Plasma parameter Triglycerides %: 90%
[4]; group 7, 10 mg/kg/d C1
  HDL: 2.00 mmol/L
  Plasma parameter Cholesterol: 3.70 mmol/L
  Plasma parameter LDL: 0.78 mmol/L
  Plasma parameter Triglycerides: 2.35 mmol/L
  HDL %: 93%
  Plasma parameter Cholesterol %: 90%
  Plasma parameter LDL %: 69%
  Plasma parameter Triglycerides %: 116%
[4]; group 8, 30 mg/kg/d C1
  HDL: 2.02 mmol/L
  Plasma parameter Cholesterol: 3.66 mmol/L
  Plasma parameter LDL: 0.80 mmol/L
  Plasma parameter Triglycerides: 2.02 mmol/L
  HDL %: 94%
  Plasma parameter Cholesterol %: 89%
  Plasma parameter LDL %: 71%
  Plasma parameter Triglycerides %: 99%
[5]; group 6, 3 mg/kg/d C1
  Liver Cholesterol: 10.99 mg/g
  Liver Cholesterol %: 100%
[5]; group 7, 10 mg/kg/d C1
  Liver Cholesterol: 9.50 mg/g
  Liver Cholesterol %: 86%
[5]; group 8, 30 mg/kg/d C1
  Liver Cholesterol: 7.18 mg/g
  Liver Cholesterol %: 65%
[6]; group 6, 3 mg/kg/d C1
  CH absorption % absorption: 39.6%
  CH absorption % of ctr.: ±80.9%
[6]; group 7, 10 mg/kg/d C1
  CH absorption % absorption: 49.1%
  CH absorption % of ctr.: ±100.1%
[6]; group 8, 30 mg/kg/d C1
  CH absorption % absorption: 38.3%
  CH absorption % of ctr.: ±78.2%

## O=C1[C@H](CC[C@H](O)c2ccc(F)cc2)[C@@H](c2ccc(O)cc2)N1c1ccc(F)cc1 [K 00 04513, ezetimibe, reference compound]
[4]; [7]
  HDL: 1.98 mmol/L
  Plasma parameter Cholesterol: 3.73 mmol/L
  Plasma parameter LDL: 1.06 mmol/L
  Plasma parameter Triglycerides: 1.99 mmol/L
  HDL %: 92%
  Plasma parameter Cholesterol %: 91%
  Plasma parameter LDL %: 94%
  Plasma parameter Triglycerides %: 98%
[4]; [8]
  HDL: 1.92 mmol/L
  Plasma parameter Cholesterol: 2.99 mmol/L
  Plasma parameter LDL: 0.40 mmol/L
  Plasma parameter Triglycerides: 1.87 mmol/L
  HDL %: 89%
  Plasma parameter Cholesterol %: 73%
  Plasma parameter LDL %: 35%
  Plasma parameter Triglycerides %: 92%
[4]; group 5, 1 mg/kg/d K 00 04513
  HDL: 1.71 mmol/L
  Plasma parameter Cholesterol: 2.53 mmol/L
  Plasma parameter LDL: 0.23 mmol/L
  Plasma parameter Triglycerides: 1.79 mmol/L
  HDL %: 80%
  Plasma parameter Cholesterol %: 62%
  Plasma parameter LDL %: 20%
  Plasma parameter Triglycerides %: 88%
[5]; [7]
  Liver Cholesterol: 11.52 mg/g
  Liver Cholesterol %: 105%
[5]; [8]
  Liver Cholesterol: 2.00 mg/g
  Liver Cholesterol %: 18%
[5]; group 5, 1 mg/kg/d K 00 04513
  Liver Cholesterol: 1.78 mg/g
  Liver Cholesterol %: 16%
[6]; [7]
  CH absorption % absorption: 47.4%
  CH absorption % of ctr.: ±96.8%
[6]; [8]
  CH absorption % absorption: 15.6%
  CH absorption % of ctr.: ±31.8%
[6]; group 5, 1 mg/kg/d K 00 04513
  CH absorption % absorption: 5.8%
  CH absorption % of ctr.: ±11.9%
